Several values for one entry are separate records, joined by “and”; a condition that tells them apart may be missing. Identical values can stand only once. Counter-ions that a name gives are not always drawn.
Tests used:
[1] = Lysozyme activity after extrusion, liquid-liquid extraction and Lysozyme activity Kit; type: biochemical
Experimental: The lysozyme was extracted from the drug delivery composition by liquid-liquid extraction. 50 mg of drug delivery composition were solubilized in 2.5 mL of Dichloromethane. Then 7.5 mL of cold 66 mM potassium phosphate buffer pH6.24 was added. The mix was vigorously vortex. Samples were maintained in ice between each step. After phase separation, aqueous phase was taken off and lysozyme activity was measured using Lysozyme activity Kit (from Sigma-Aldrich).
The lysozyme was extracted from the drug delivery composition by liquid-liquid extraction as described in Example 4 and lysozyme activity was titrated with lysozyme activity kit (from Sigma-Aldrich).

[2] = lysozyme powder from Sigma-Aldrich; cited from earlier work
[3] = Drug integrity after extrusion and release, HPLC peaks compared with non-extruded drug
Experimental: An Ultimate 3000 HPLC system (Thermofisher Scientific) equipped with Diode Array Detector (DAD-3000(RS)) and a Phenomenex Kinetex EVO C18, LC Column 100×2.1 mm, 2.6 μm with a pore size of 100 Å. The column was controlled to a temperature of 30° C. The mobile phase was a gradient of Ammonium Bicarbonate 20 mM pH9/Acetonitrile (95/5% to 35/65 in 5 min) with a flow rate of 0.75 mL/min. Naltrexone hydrochloride powder was accurately weighed and dissolved in water to give 450 μg/mL solution. Subsequent dilutions were made with water to get concentrations of 7-450 μg/mL. The standard solutions prepared as above were injected in the same conditions of samples. The peak areas of the naltrexone concentration were calculated. The regression of the naltrexone concentration over the peak areas was obtained and used to estimate the amount of naltrexone released from the polymer.

Molecule	lysozyme activity after two extrusions (in words) ([1]; Example 4 composition (PLA, PCL masterbatch, Savinase®), extrusions at 78° C. and 165° C., results not shown)	lysozyme activity retained after extrusion ([1]; Example 5.2 composition, 50% PCL and 50% lysozyme, extruded at 78° C.) [%]	denaturation temperature [2]	degradation of the released drug by the PLA-degrading enzyme ([3]; drug delivery composition with Savinase®)	degradation of naltrexone through the extrusion process ([3]; extruded in PLA at 168° C.)
lysozyme: lysozyme powder from Sigma-Aldrich, 14.7 kDa protein used as model drug	still exhibits activity	95	76 °C and 74 °C		
O=C1CC[C@@]2(O)[C@H]3Cc4ccc(O)c5c4[C@@]2(CCN3CC2CC2)[C@H]1O5 [naltrexone, naltrexone hydrochloride]				without any degradation	not degraded

Reference: patent US20200206354A1, “DRUG DELIVERY COMPOSITION” (PK MED SAS, priority 2017, published 2020)
